The results in this text go back to US20260198495A1, “BINARY INSECTICIDE COMPOSITION AND USE THEREOF” (SHENYANG SINOCHEM AGROCHEMICALS R & D CO., LTD., priority 2022, published 2026).

≈ marks a conversion by molar mass, not a printed value.

What all share (format): in vivo
Assay [1] concerns 2nd-instar larvae of Plutella xylostella. In words: Joint toxicity of I-72 + tetraniliprole, Example 58, Table 58. To be noted: Plutella xylostella, foliar; A = compound I-72, B = tetraniliprole; cabbage leaf dipping; 72 hours; read-out: LC50. Here is the method:
Test target: 2nd-instar larvae of Plutella xylostella.
(§1) Preparation of the pesticide solution: according to different test requirements, the test samples were accurately weighed respectively with an electronic analytical balance. The technical pesticides were dissolved in acetone, and then diluted with 0.1% Tween 80 water into a series of pesticide solutions with a certain concentration gradient according to the experimental design dosage.
Experimental method: first, cabbage leaves were selected and dipped in the prepared pesticide solution for 10 s in the order from low dosage to high dosage according to the experimental design. After natural air-drying in the shade, they were placed in a 9-cm-diameter Petri dish with filter paper, and uniform and healthy test insects were introduced, with 10 insects for each treatment and 3 replicates for each treatment. In addition, a blank control was set up.
(§2) The treated test materials were placed in an observation room, and the temperature, humidity and illumination of the observation room could be adjusted as needed. The number of dead and live insects was investigated 72 hours later. […] Then, the co-toxicity coefficient of each ratio was calculated using the Sun Y-P method to evaluate the mixing effect (the same as in Example 1).

Assay [2] has as its system 3rd-instar larvae of Plutella xylostella. As to the kind of experiment: Joint toxicity of I-72 + chlorpyrifos, leaf-disk dipping, Example 16, Table 16. To be noted: 3rd-instar larvae, cabbage leaf-disk dipping, 72 h, A = compound I-72, B = chlorpyrifos, read-out: LC50. The protocol:
Test target: 3rd-instar larvae of Plutella xylostella.
as §1
Experimental method: first, fresh cabbage leaves cultivated in the greenhouse were selected. The cabbage leaves were made into circular leaf disks with a diameter of 3 cm using a puncher and dipped in the prepared pesticide solution for 10 s in the order from low dosage to high dosage according to the experimental design. After natural air-drying in the shade, they were placed in a 9-cm-diameter Petri dish with filter paper, and uniform and healthy test insects were introduced, with 10 insects for each treatment and 3 replicates for each treatment. In addition, a blank control was set up.
The treated test materials were placed in an observation room, and the temperature, humidity and illumination of the observation room could be adjusted as needed. […] Then, the co-toxicity coefficient of each ratio was calculated using the Sun Y-P method to evaluate the mixing effect (the same as in Example 1).

For assay [3], the system named is 3rd-instar larvae of Chilo suppressalis (Walker). As to the kind of experiment: Joint toxicity of I-72 + methoxyfenozide, Example 53, Table 53. To be noted: A = compound I-72, B = methoxyfenozide, rice stem dipping, 72 hours, read-out: LC50. The protocol:
Test target: 3rd-instar larvae of Chilo suppressalis (Walker).
as §1
Experimental method: first, tender rice stems were selected and dipped in the prepared pesticide solution for 10 s in the order from low dosage to high dosage according to the experimental design. After natural air-drying in the shade, they were placed in a 9-cm-diameter Petri dish with filter paper, and uniform and healthy test insects were introduced, with 10 insects for each treatment and 3 replicates for each treatment. In addition, a blank control was set up.
as §2

In assay [4] the test system is adult Tetranychus urticae Koch. In words: Joint toxicity of I-72 + spirobudifen, Example 29, Table 29. The note with it: A = compound I-72, B printed spirotetramat (title: spirobudifen), potted-seedling spraying, 72 hours, read-out: LC50. Here is the method: as §1
In addition, a blank control was set up.
The treated test materials were placed in an observation room, and the temperature, humidity and illumination of the observation room could be adjusted as needed.

The test system of assay [5] is 2nd-instar larvae of Chilo suppressalis (Walker). In words: whole plant or invertebrate. The note with it: Chilo suppressalis; resistant 2nd-instar larvae, rice stalk spraying, 72 h; A = compound I-72, B = spinetoram; read-out: LC50. Here is the method:
In addition, a blank control was set up. The number of dead and live insects was investigated 72 hours later.

Assay [6] has as its system Empoasca pirisuga. As to the kind of experiment: Field efficacy trial of I-72 and Beauveria bassiana in a tea garden, Example 88, Table 88. The note with it: spraying. Here is the method:
This trial was performed in a tea garden in Yuhang District, Hangzhou. The spraying method was used for pesticide application. The investigation method was to take samples at 5 points, with 2 fixed plants at each point. A total of 10 plants were investigated in each plot, and the trial was replicated four times. The number of Empoasca vitis nymphs on the back of 100 tender leaves in each plot was randomly investigated. The amount of the pesticide solution sprayed was 75 L per mu. The base number was investigated before the pesticide application, and the number of live Empoasca pirisuga in each treatment sample point was investigated 3, 7 and 14 days after the pesticide application. The calculation method for the efficacy of the test pesticides was the same as that in Example 38.
Test pesticides: A: wettable powder of Beauveria bassiana with 40 billion spores/gram (Jiangxi Tianren Ecology Co., Ltd.); and B: compound I-72 (dissolved in acetone, 0.1% Tween 80 was added, and a 10% stock solution was prepared for use).

The subject of assay [7] is Myzus persicae (Sulzer) nymphs. In words: Joint toxicity of I-72 + cyantraniliprole, Example 59, Table 59. The note with it: A = compound I-72, B = cyantraniliprole, cabbage leaf spraying, 48 hours, read-out: LC50. Here is the method:
Test target: Myzus persicae (Sulzer) nymphs, a sensitive strain reared indoors.
as §1
Experimental method: first, cabbage leaves with uniform and consistent Myzus persicae (Sulzer) were selected, with about 30-40 insects on each leaf. Then, they were evenly sprayed with the pesticide solution in the order from low dosage to high dosage according to the experimental design, with 1.5 mL of the solution for each leaf and 3 replicates for each treatment. In addition, a blank control was set up.
The treated test materials were placed in an observation room, and the temperature, humidity and illumination of the observation room could be adjusted as needed. The number of dead and live insects was investigated 48 hours later. […] Then, the co-toxicity coefficient of each ratio was calculated using the Sun Y-P method to evaluate the mixing effect (the same as in Example 1).

Take `CN(C(=O)c1ccc2c(c1)OC(F)(F)O2)c1cccc(C(=O)Nc2c(Br)cc(C(F)(C(F)(F)F)C(F)(F)F)cc2OC(F)F)c1F` [Compound I-72]: the LC50 (as a rule, the concentration lethal to half of the exposed cells or organisms) in assay [1] was determined as 0.0888 µg/mL; in assay [2], 0.09 µg/mL; in assay [3] it was 1.02 µg/mL; in assay [4], 41.6 µg/mL; in assay [5] it was 0.811 µg/mL (≈ 1.09 µM); in assay [7] it was 8.14 µg/mL. Also, the “Control efficacy 3 days after pesticide application” value in assay [6] (dose 15 ml) is 57.0%; in assay [6] (dose 30 ml), 57.5%; in assay [6] (dose 45 ml), 62.5%. The “Control efficacy 7 days after pesticide application” value in assay [6] (dose 15 ml) is on record as 75.8%; in assay [6] (dose 30 ml) it was 77.7%; in assay [6] (dose 45 ml), 78.1%. In addition, the “Control efficacy 14 days after pesticide application” value in assay [6] (dose 15 ml) is reported as 74.2%; in assay [6] (dose 30 ml) it was 79.3%; in assay [6] (dose 45 ml), 78.9%.
